Assay results from US20260085073A1, “PYRAZOLYLCARBOXAMIDE COMPOUNDS AND THEIR USE IN THERAPY” (Hotspot Therapeutics, Inc., priority 2022, published 2026).

These compounds were tested against T1, MALT1 (Homo sapiens, UniProt Q9UDY8) (assay: MALT1 inhibition assay (MALT-1 Fluorogenic Peptide Cleavage Assay, Ac-LRSR-AMC substrate)). Settings: Avi-tagged FL MALT-1, 30 min pre-incubation, 90 min reaction at room temperature, fluorescence intensity.
T1 construct: Avi-tagged FL MALT-1 (Pharmaron, stored at −70° C.); Avi-tag
T1 sequence (Q9UDY8 1-824): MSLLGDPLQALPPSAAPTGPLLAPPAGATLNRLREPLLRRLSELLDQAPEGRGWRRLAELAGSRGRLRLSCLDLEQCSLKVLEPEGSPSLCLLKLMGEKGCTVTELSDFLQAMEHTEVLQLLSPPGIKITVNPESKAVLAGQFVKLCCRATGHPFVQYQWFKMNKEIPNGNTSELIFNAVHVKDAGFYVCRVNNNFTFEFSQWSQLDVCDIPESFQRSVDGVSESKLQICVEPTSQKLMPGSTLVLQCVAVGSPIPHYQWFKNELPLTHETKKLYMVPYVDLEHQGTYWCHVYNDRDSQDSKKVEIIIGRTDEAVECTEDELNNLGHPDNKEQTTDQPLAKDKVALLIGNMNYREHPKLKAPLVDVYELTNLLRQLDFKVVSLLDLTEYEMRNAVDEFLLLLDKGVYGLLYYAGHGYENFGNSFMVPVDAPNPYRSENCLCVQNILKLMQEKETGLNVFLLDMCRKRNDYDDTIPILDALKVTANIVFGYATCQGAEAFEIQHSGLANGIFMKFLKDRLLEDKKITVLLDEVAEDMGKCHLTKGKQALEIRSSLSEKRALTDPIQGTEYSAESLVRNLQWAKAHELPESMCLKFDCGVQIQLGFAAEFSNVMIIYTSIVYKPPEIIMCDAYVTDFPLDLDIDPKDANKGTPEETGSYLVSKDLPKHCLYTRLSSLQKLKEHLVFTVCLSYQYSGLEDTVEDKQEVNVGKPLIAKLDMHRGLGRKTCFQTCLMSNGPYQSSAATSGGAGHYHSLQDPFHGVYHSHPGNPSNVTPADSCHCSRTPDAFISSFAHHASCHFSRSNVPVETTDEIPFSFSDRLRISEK
Type: biochemical
Procedure: Example 71—MALT1 Inhibition Assay
Compounds were tested for ability to bind to MALT1.
Inhibition of MALT1 activity by the presence of small molecules was evaluated using MALT-1 Fluorogenic Peptide Cleavage Assay. The assay utilizes a quenched AMC-labelled peptide that contains the MALT-1 recognition sequence and cleavage site (LRSR). MALT-1 mediated cleavage of the peptide relieves the quenching and leads to an increase in fluorescence at excitation (342 nm) and emission (441 nm).
The following reagents were obtained commercially and used to prepare standard reagent formulations as further described below: N-2-hydroxyethylpiperazine-N-2-ethane sulfonic acid (HEPES) (1 M, pH 7.5, stored at 4° C.), sodium citrate (stored at RT), tris(2-carboxyethyl) phosphine hydrochloride (T-CEP) (500 mM, stored at −20° C.), ethylenediaminetetraacetic acid (EDTA) (500 mM, stored at RT), dimethylsulfoxide (DMSO, stored at RT), 3-[(3-cholamidopropyl)dimethylammonio]-1-propane sulphate (CHAPS) (stored at RT), dimethylsulfoxide (DMSO), DMSO (Fisher Scientific, stored at RT), Avi-tagged FL MALT-1 (Pharmaron, stored at −70° C.), Ac-LRSR-AMC Peptide (SM Biochemicals, stored at −20° C.), and ultrapure water (MILLI-QR).
The standard reagent formulations used in this assay were prepared and stored as follows. A 1.1 M solution of sodium citrate (161.3 g, 500 mL) was prepared and stored at room temperature. A 10% (w/v) CHAPS solution (2.0 g, 20 mL) was prepared and stored at 4° C. A 500 mM HEPES solution having pH of 6.89 was prepared from 200 mL of a 1 M HEPES solution having a pH of 7.5 using concentrated hydrochloric acid and brought to a final volume of 400 mL with MILLI-QR H2O. The substrate, 10 mM Ac-LRSR-AMC Peptide, was prepared (10 mg, 1.370 mL DMSO) and stored at −20° C.
Compounds were plated to provide a 2% DMSO final concentration using a ProxiPlate-384 Plus F Black 384-shallow well microplate. The assay-ready plates were equilibrated to room temperature. A reaction buffer (30 mL total volume) was prepared by combining HEPES (pH 6.89, 25 mM, 1.5 mL), sodium citrate (660 mM, 18.0 mL), T-CEP (1 mM, 0.06 mL), EDTA ([…], 0.06 mL), CHAPS (0.05%, 0.15 mL), DMSO (2%, 0.6 mL), and MILLI-QR H2O (10.23 mL; 9.63 mL when backfilled to 2% DMSO) followed by thorough mixing. DMSO was added only when compound plates had not been DMSO-backfilled to 2%.
MALT-1 was thawed and kept on ice. Peptide substrate was thawed on the bench under ambient conditions. A MALT-1 enzyme working stock was prepared from Avi-tagged FL MALT-1 (40 nM in a prepared reagent volume of 16.5 μL) and the reaction buffer (13.0 mL). MALT1 working stock (5 μL) was added to each well of the microplate. MALT-1 was pre-incubated with compounds for 30 minutes at room temperature.
Two substrate working stocks (Km and 10×Km) were prepared. The 1×Km substrate was prepared from Ac-LRSR-AMC Peptide (50 μM in a prepared reagent volume of 35.0 μL) and the reaction buffer (6.965 mL). The 10×Km substrate was prepared from Ac-LRSR-AMC Peptide (280 μM in a prepared reagent volume of 196.0 μL) and the reaction buffer (6.804 mL). The reaction was initiated by the addition of substrate working stock (5 μL, 50 μM) to Km plates and the addition of substrate working stock (5 μL 280 μM) to 10×Km plates. The plates were covered and incubated on the bench at room temperature for 90 minutes.
Fluorescence intensity was determined using a CLARIOstar microplate reader (BMG LABTECH) using the optimised AMC mode. Before taking readings, a 70% gain was applied on the neutral control well. Compound data were normalised to % Inhibition and used to plot sigmoidal concentration response curves to yield various parameters including IC50.

Row | SMILES | IC50
1 | Cn1nc([C@@H]2C[C@H]2c2ccccc2)c(C(F)(F)F)c1C(=O)Nc1ccnc(C(F)(F)F)c1 (racemic) [Compound I-40] | > 10000 nM
2 | Cn1nc(-c2csc3cnccc23)c(C(F)(F)F)c1C(=O)Nc1ccnc(C(F)(F)F)c1 [Compound I-1, 1-methyl-3-(thieno[2,3-c]pyridin-3-yl)-4-(trifluoromethyl)-N-(2-(trifluoromethyl)pyridin-4-yl)-1H-pyrazole-5-carboxamide] | < 500 nM
3 | Cn1nc(-c2cccc3c2OCC(=O)N3)c(C(F)(F)F)c1C(=O)Nc1ccnc(C(F)(F)F)c1 [Compound I-2] | 2500 to 10000 nM
4 | Cn1nc(-c2cccc3c2CCNC3=O)c(C(F)(F)F)c1C(=O)Nc1ccnc(C(F)(F)F)c1 [Compound I-3] | 2500 to 10000 nM
5 | Cn1nc(-c2cccc3ncn(C)c23)c(C(F)(F)F)c1C(=O)Nc1ccnc(C(F)(F)F)c1 [Compound I-4] | < 500 nM
6 | Cn1cc2cccc(-c3nn(C)c(C(=O)Nc4ccnc(C(F)(F)F)c4)c3C(F)(F)F)c2n1 [Compound I-5] | 2500 to 10000 nM
7 | Cn1nc(-c2c[nH]c3ncccc23)c(C(F)(F)F)c1C(=O)Nc1ccnc(C(F)(F)F)c1 [Compound I-6] | < 500 nM
8 | Cn1nc(-c2cccc3cccnc23)c(C(F)(F)F)c1C(=O)Nc1ccnc(C(F)(F)F)c1 [Compound I-7] | 500 to 2500 nM
9 | Cn1nc(-c2ccc(=O)n(C)c2)c(C(F)(F)F)c1C(=O)Nc1ccnc(C(F)(F)F)c1 [Compound I-8] | 2500 to 10000 nM
10 | Cn1nc(-c2cccc3ocnc23)c(C(F)(F)F)c1C(=O)Nc1ccnc(C(F)(F)F)c1 [Compound I-9] | < 500 nM
11 | Cn1nc(-c2cccc3nc[nH]c23)c(C(F)(F)F)c1C(=O)Nc1ccnc(C(F)(F)F)c1 [Compound I-10] | 500 to 2500 nM
12 | Cn1nc(-c2cccc3ncoc23)c(C(F)(F)F)c1C(=O)Nc1ccnc(C(F)(F)F)c1 [Compound I-11] | < 500 nM
13 | Cn1nc(-c2cccc3c2CC(=O)N3)c(C(F)(F)F)c1C(=O)Nc1ccnc(C(F)(F)F)c1 [Compound I-12] | 500 to 2500 nM
14 | Cn1nc(-c2cccc3nccn23)c(C(F)(F)F)c1C(=O)Nc1ccnc(C(F)(F)F)c1 [Compound I-13] | 500 to 2500 nM
15 | Cn1nc(-c2ccnc3ccoc23)c(C(F)(F)F)c1C(=O)Nc1ccnc(C(F)(F)F)c1 [Compound I-14] | < 500 nM
16 | Cn1nc(-c2cnc3ncccn23)c(C(F)(F)F)c1C(=O)Nc1ccnc(C(F)(F)F)c1 [Compound I-15] | > 10000 nM
17 | Cn1nc(-c2cnc3cccnn23)c(C(F)(F)F)c1C(=O)Nc1ccnc(C(F)(F)F)c1 [Compound I-16] | > 10000 nM
18 | Cc1ccc(-c2nn(C)c(C(=O)Nc3ccnc(C(F)(F)F)c3)c2C(F)(F)F)c(Cl)c1 [Compound I-18] | 500 to 2500 nM
19 | COc1ccncc1-c1nn(C)c(C(=O)Nc2ccnc(C(F)(F)F)c2)c1C(F)(F)F [Compound I-19] | 500 to 2500 nM
20 | COc1cccc(OC)c1-c1nn(C)c(C(=O)Nc2ccnc(C(F)(F)F)c2)c1C(F)(F)F [Compound I-20] | 500 to 2500 nM
21 | Cn1nc(-c2cccc3nccnc23)c(C(F)(F)F)c1C(=O)Nc1ccnc(C(F)(F)F)c1 [Compound I-21] | 500 to 2500 nM

Row | SMILES | IC50
22 | Cn1nc(-c2ccc(C#N)c3ncccc23)c(C(F)(F)F)c1C(=O)Nc1ccnc(C(F)(F)F)c1 [Compound I-22] | 500 to 2500 nM
23 | Cn1nc(-c2cccc3c2NC(=O)C3)c(C(F)(F)F)c1C(=O)Nc1ccnc(C(F)(F)F)c1 [Compound I-23] | 500 to 2500 nM
24 | Cn1nc(-c2cccc3c(C#N)nccc23)c(C(F)(F)F)c1C(=O)Nc1ccnc(C(F)(F)F)c1 [Compound I-24] | 500 to 2500 nM
25 | Cn1nc(-c2cccc3c2OCCCO3)c(C(F)(F)F)c1C(=O)Nc1ccnc(C(F)(F)F)c1 [Compound I-25] | 2500 to 10000 nM
26 | Cn1nc(-c2cnn3c2OCCC3)c(C(F)(F)F)c1C(=O)Nc1ccnc(C(F)(F)F)c1 [Compound I-26] | > 10000 nM
27 | Cn1nc(-c2cccc3cnccc23)c(C(F)(F)F)c1C(=O)Nc1ccnc(C(F)(F)F)c1 [Compound I-27] | 500 to 2500 nM
28 | Cn1nc(-c2ccccc2OC2COC2)c(C(F)(F)F)c1C(=O)Nc1ccnc(C(F)(F)F)c1 [Compound I-28] | 2500 to 10000 nM
29 | Cn1nc(-c2cccc3ccoc23)c(C(F)(F)F)c1C(=O)Nc1ccnc(C(F)(F)F)c1 [Compound I-29] | < 500 nM
30 | Cn1nc(-c2cccc3ccoc23)c(C(F)(F)F)c1C(=O)Nc1cnc(-n2nccn2)c(C#N)c1 [Compound I-30] | < 500 nM
31 | Cn1nc(-c2cccc3cnccc23)c(C(F)(F)F)c1C(=O)Nc1cnc(-n2nccn2)c(C#N)c1 [Compound I-31] | < 500 nM
32 | Cn1nc(/C=C/c2ccccc2)c(C(F)(F)F)c1C(=O)Nc1ccnc(C(F)(F)F)c1 [Compound I-32] | > 10000 nM
33 | Cn1nc(-c2cccc3c2OCO3)c(C(F)(F)F)c1C(=O)Nc1ccnc(C(F)(F)F)c1 [Compound I-33] | < 500 nM
34 | Cn1nc(-c2ccccc2OC2COC2)c(C(F)(F)F)c1C(=O)Nc1cnc(-n2nccn2)c(C#N)c1 [Compound I-34] | 500 to 2500 nM
35 | Cn1nc(-c2ccc(C#N)cc2Cl)c(C(F)(F)F)c1C(=O)Nc1cnc(-n2nccn2)c(C#N)c1 [Compound I-35] | < 500 nM
36 | Cn1nc(-c2ccc(C#N)cc2Cl)c(C(F)(F)F)c1C(=O)Nc1cnc(-n2nccn2)c(Cl)c1 [Compound I-36] | < 500 nM
37 | Cn1nc(-c2ccc3cnccc3c2)c(C(F)(F)F)c1C(=O)Nc1ccnc(C(F)(F)F)c1 [Compound I-37] | > 10000 nM
38 | Cn1nc(-c2cccc3ncccc23)c(C(F)(F)F)c1C(=O)Nc1cnc(-n2nccn2)c(C#N)c1 [Compound I-38] | 500 to 2500 nM
39 | Cn1nc(-c2cccc3ncccc23)c(C(F)(F)F)c1C(=O)Nc1ccnc(C(F)(F)F)c1 [Compound I-39] | 500 to 2500 nM
40 | Cn1nc(-c2ccc(C#N)cc2Cl)c(C(F)(F)F)c1C(=O)Nc1ccnc(C(F)(F)F)c1 [Compound I-41] | < 500 nM
41 | Cn1nc(-c2cncc3sccc23)c(C(F)(F)F)c1C(=O)Nc1ccnc(C(F)(F)F)c1 [Compound I-42, 1-methyl-3-(thieno[2,3-c]pyridin-4-yl)-4-(trifluoromethyl)-N-(2-(trifluoromethyl)pyridin-4-yl)-1H-pyrazole-5-carboxamide] | < 500 nM
